Where two headings read alike, the source gives them in different places.

What is called IC50 is the concentration that gives 50% inhibition.

Type in all cases: cell-based
One experiment has as its target T1, wildtype TRKA protein (Homo sapiens, UniProt P04629).
T1 construct: wildtype TRKA protein expressed by HEL cells; endogenous in cells; host or cells: HEL erythroleukemia cells
Put plainly: Wildtype TRKA protein levels in HEL erythroleukemia cells (Western blot). Conditions: dose range (FIG. 8). The protocol: KM12 or HEL cells were treated with a dose range of compound TR-123 or TR-123-negative. The latter lost binding to cereblon (CRBN) due to a chemical modification.
KM12 or HEL cells were treated with a single dose of compound TR-123 or combination with MG-132, Bortezomib, MLN4924 or Pomalidomide.
HEL cells were treated with heterobifunctional compounds at 10 nM or 100 nM for 16 hours.
KM12, H358, HEL, SU-DHL-1 and other cells were cultured at 37° C. with 5% CO2 in RPMI 1640 Medium supplemented with 10% fetal bovine serum. Cells were authenticated using the short tandem repeat (STR) assays. Mycoplasma test results were negative. Stable cell lines were established by lentivirus transduction, selected and maintained in medium containing 1 μg/mL puromycin (Beyotime Biotechnology).
Cultured cells were washed with cold PBS once and lysed in cold RIPA buffer supplemented with protease inhibitors and phosphatase inhibitors (Beyotime Biotechnology). The solutions were then incubated at 4° C. for 30 minutes with gentle agitation to fully lyse cells. For tumor tissues, tumors were cut into small pieces, milled with cold RIPA buffer using a mechanical homogenizer and lysed for 1 hour at 4° C. Cell lysates were centrifuged at 13,000 rpm for 10 minutes at 4° C. and pellets were discarded. Total protein concentrations in the lysates were determined by BCA assays (Beyotime Biotechnology). Cell lysates were mixed with Laemmli loading buffer to 1× and heated at 99° C. for 5 min. Proteins were resolved on SDS-PAGE and visualized by chemiluminescence. Images were taken by a ChemiDoc MP Imaging system (Bio-Rad). Protein bands were quantitated using the software provided by Bio-Rad.
(In general: A western blot detects proteins with antibodies after separation by electrophoresis.)

The next experiment deals with T2, TPM3-TRKA fusion protein (Homo sapiens, UniProt P04629).
T2 construct: The resulted chimeric proteins always retain the kinase domain of TRK proteins; TPM3 (fusion partner, N-terminal part of tropomyosin alpha-3, P06753); endogenous in cells; host or cells: KM12 colon cancer cells; the other entry of the earlier key: TPM3 (P06753, Tropomyosin alpha-3 chain)
T2 sequence (P04629 with tags, fused parts or gaps): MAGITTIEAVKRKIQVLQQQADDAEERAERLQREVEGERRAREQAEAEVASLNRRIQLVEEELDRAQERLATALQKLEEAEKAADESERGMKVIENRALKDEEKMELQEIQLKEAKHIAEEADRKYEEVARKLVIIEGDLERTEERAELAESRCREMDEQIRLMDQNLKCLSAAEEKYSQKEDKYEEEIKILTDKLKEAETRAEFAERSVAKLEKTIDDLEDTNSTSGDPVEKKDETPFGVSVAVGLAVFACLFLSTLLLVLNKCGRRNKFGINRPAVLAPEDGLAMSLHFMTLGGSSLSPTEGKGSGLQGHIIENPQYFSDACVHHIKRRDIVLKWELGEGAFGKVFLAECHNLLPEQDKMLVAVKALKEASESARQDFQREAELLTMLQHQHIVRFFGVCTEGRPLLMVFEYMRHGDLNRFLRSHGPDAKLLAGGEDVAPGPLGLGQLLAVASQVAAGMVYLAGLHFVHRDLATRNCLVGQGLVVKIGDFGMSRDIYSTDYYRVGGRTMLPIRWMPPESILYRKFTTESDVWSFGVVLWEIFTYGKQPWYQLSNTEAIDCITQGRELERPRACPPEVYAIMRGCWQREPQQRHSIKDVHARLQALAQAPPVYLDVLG
Briefly: TPM3-TRKA fusion protein levels in KM12 cells (Western blot). As to conditions: for percent degradation of TPM3-TRKA protein at 0.01 µM: read-out: Degradation (at 10 nM); for relative effectiveness at degrading TRKA: 0.4-30 nM, 8-16 hours, comparison of enantiomers (FIG. 28A-28B). In outline: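 TPM3-TRKA levels were assessed by Western blot with chemiluminescent detection and band densitometry, after SDS-PAGE of BCA-normalized RIPA lysates. Before lysis, KM12 cells received DMSO, compounds or matched control compounds at concentrations including 0.1, 1, 10 and 100 nM and 0.4–30 nM. Exposures lasted 4 h, 8–16 h or 16 h.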

The next experiment concerns KM12 cells. Put plainly: KM12 cell viability (CellTiter-Glo). As to conditions: Homo sapiens, 72 h; KM12 cell viability, CellTiter-Glo, three days treatment; read-out: IC50. In outline:
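Three-day exposure of KM12 cells (5000/well, RPMI 1640 with 10% FBS, 37 °C, 5% CO2) to compound dilution series, 3-fold over 8 or 11 points (top 1000 nM in the 8-point format) or 2-fold over 12. CellTiter-Glo readout, with IC50 fitted by nonlinear least-squares regression.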
On the technique in general: ATP-based viability assays read luminescence as a measure of living cells.

Where [1] appears, read: 16 h, TPM3-TRKA degradation in KM12 cells at 10 nM compound, category of percentage degradation.

T1 sequence (P04629 33-796): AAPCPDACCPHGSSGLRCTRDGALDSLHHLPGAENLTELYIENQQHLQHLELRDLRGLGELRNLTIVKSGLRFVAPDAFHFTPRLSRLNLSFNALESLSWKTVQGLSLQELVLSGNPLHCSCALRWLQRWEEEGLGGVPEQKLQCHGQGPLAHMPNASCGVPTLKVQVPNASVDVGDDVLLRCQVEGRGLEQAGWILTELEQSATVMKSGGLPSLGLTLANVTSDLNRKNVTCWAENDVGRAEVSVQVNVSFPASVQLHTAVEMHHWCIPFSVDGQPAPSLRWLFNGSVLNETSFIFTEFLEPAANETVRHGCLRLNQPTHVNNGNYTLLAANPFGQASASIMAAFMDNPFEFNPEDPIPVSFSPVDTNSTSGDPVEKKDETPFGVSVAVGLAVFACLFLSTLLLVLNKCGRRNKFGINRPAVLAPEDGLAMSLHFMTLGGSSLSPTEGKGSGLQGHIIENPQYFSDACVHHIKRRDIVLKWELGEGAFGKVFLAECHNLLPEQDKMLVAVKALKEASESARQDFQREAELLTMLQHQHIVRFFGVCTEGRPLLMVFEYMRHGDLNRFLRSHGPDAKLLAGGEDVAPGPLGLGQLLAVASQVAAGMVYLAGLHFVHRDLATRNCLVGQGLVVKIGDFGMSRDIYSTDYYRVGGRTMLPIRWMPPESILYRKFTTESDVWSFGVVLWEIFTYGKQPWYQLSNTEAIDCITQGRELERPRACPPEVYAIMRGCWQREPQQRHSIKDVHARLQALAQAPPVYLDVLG

With `CN1C(=O)CCC(N2C(=O)c3ccc(NCC(=O)N4CCN(c5cccc(-c6cnc7ccc(N8CCC[C@@H]8c8cccc(F)c8)nn67)n5)CC4)cc3C2=O)C1=O` (stereo partly drawn) [TR-123-negative, 5-((2-(4-(6-(6-((R)-2-(3-fluorophenyl)pyrrolidin-1-yl)imidazo[1,2-b]pyridazin-3-yl)pyridin-2-yl)piperazin-1-yl)-2-oxoethyl)amino)-2-(1-methyl-2,6-dioxopiperidin-3-yl)isoindoline-1,3-dione], the TRKA protein levels result at wildtype TRKA protein is given as “had none or less effects on TRKA protein levels”; at TPM3-TRKA fusion protein (KM12 cells, dose range (FIG. 8)), “had none or less effects on TRKA protein levels”.

For the molecule `Cc1nc2cccc(N3CC(CN4CCN(c5ccc(C(=O)Nc6n[nH]c7ccc(Cc8cc(F)cc(F)c8)cc67)c(NC6CCOCC6)c5)CC4)C3)c2c(=O)n1C1CCC(=O)NC1=O` (stereo not shown) [TR-333, N-(5-(3,5˜Difluorobenzyl)-1H-indazol-3-yl)-4-(4-((1-(3-(2,6-dioxopiperidin-3-yl)-2-methyl-4-oxo-3,4-dihydroquinazolin-5-yl)azetidin-3-yl)methyl)piperazin-1-yl)-2-((tetrahydro-2H-pyran-4-yl)amino)benzamide], the IC50 with KM12 cells is 10.5 nM. Moreover, the percent degradation of TPM3-TRKA protein at 0.01 µM on TPM3-TRKA fusion protein (setting [1]) was 50 to 80%.

Turning to `Cc1nc2cccc(N3CC(CCN4CCN(c5ccc(C(=O)Nc6n[nH]c7ccc(Cc8cc(F)cc(F)c8)cc67)c(NC6CCOCC6)c5)CC4)C3)c2c(=O)n1C1CCC(=O)NC1=O` (stereo not shown) [TR-334, N-(5-(3,5-Difluorobenzyl)-1H-indazol-3-yl)-4-(4-(2-(1-(3-(2,6-dioxopiperidin-3-yl)-2-methyl-4-oxo-3,4-dihydroquinazolin-5-yl)azetidin-3-yl)ethyl)piperazin-1-yl)-2-((tetrahydro-2/-pyran-4-yl)amino)benzamide], the IC50 in the experiment with KM12 cells was 24.6 nM. At TPM3-TRKA fusion protein (setting [1]), the percent degradation of TPM3-TRKA protein at 0.01 µM lay within 50 to 80%.

As for `O=C1CCC(N2Cc3ccc(N4CC(N5CCN(c6cccc(-c7cnc8ccc(N9CCC[C@@H]9c9cccc(F)c9)nn78)n6)CC5)C4)cc3C2=O)C(=O)N1` (stereo partly drawn) [TR-335, 3-(6-(3-(4-(6-(6-((R)-2-(3-fluorophenyl)pyrrolidin-1-yl)imidazo[1,2-b]pyridazin-3-yl)pyridin-2-yl)piperazin-1-yl)azetidin-1-yl)-1-oxoisoindolin-2-yl)piperidine-2,6-dione], the IC50 in the experiment with KM12 cells stood at 8.3 nM. Moreover, at TPM3-TRKA fusion protein (setting [1]), the percent degradation of TPM3-TRKA protein at 0.01 µM was in the range of 50 to 80%.

With `O=C1CCC(N2Cc3ccc(N4CC(N5CCN(c6ccc(C(=O)Nc7n[nH]c8ccc(Cc9cc(F)cc(F)c9)cc78)c(NC7CCOCC7)c6)CC5)C4)cc3C2=O)C(=O)N1` (stereo not drawn) [TR-336, N—(S-(3,5-difluorobenzyl)-1H-indazol-3-yl)-4-(4-(1-(2-(2,6-dioxopiperidin-3-yl)-3-oxoisoindolin-5-yl)azetidin-3-yl)piperazin-1-yl)-2-((tetrahydro-2H-pyran-4-yl)amino)benzamide], the IC50 in the experiment on KM12 cells was 3.2 nM. Also, at TPM3-TRKA fusion protein (setting [1]), the percent degradation of TPM3-TRKA protein at 0.01 µM is above 80%.

As to `O=C1CCC(N2C(=O)c3ccc(N4CC(NC5CCN(c6ccc(C(=O)Nc7n[nH]c8ccc(Cc9cc(F)cc(F)c9)cc78)c(NC7CCOCC7)c6)CC5)C4)cc3C2=O)C(=O)N1` (stereo not shown) [TR-337, N-(5-(3,5-difluorobenzyl)-1H-indazol-3-yl)-4-(4-((1-(2-(2,6-dioxopiperidin-3-yl)-1,3-dioxoisoindolin-5-yl)azetidin-3-yl)amino)piperidin-1-yl)-2-((tetrahydro-2H-pyran-4-yl)amino)benzamide], the IC50 in the experiment on KM12 cells is 5.5 nM. Besides, the percent degradation of TPM3-TRKA protein at 0.01 µM at TPM3-TRKA fusion protein (setting [1]) was above 80%.

Regarding `O=C1CCC(N2Cc3cc(C4CN(C5CCN(c6ccc(C(=O)Nc7n[nH]c8ccc(Cc9cc(F)cc(F)c9)cc78)c(NC7CCOCC7)c6)CC5)C4)ccc3C2=O)C(=O)N1` (stereo not shown) [TR-338, N-(5-(3,5-difluorobenzyl)-1H-indazol-3-yl)-4-(4-(3-(2-(2,6-dioxopiperidin-3-yl)-1-oxoisoindolin-5-yl)azetidin-1-yl)piperidin-1-yl)-2-((tetrahydro-2H-pyran-4-yl)amino)benzamide], in the experiment with KM12 cells, the IC50 turned out to be 1.3 nM. In addition, the percent degradation of TPM3-TRKA protein at 0.01 µM at TPM3-TRKA fusion protein (KM12, 16 h) is above 80%.

On to `O=C1CCC(N2C(=O)c3ccc(C4CN(C5CCN(c6ccc(C(=O)Nc7n[nH]c8ccc(Cc9cc(F)cc(F)c9)cc78)c(NC7CCOCC7)c6)CC5)C4)cc3C2=O)C(=O)N1` (stereo not shown) [TR-339, N-(5-(3,5-difluorobenzyl)-1H-indazol-3-yl)-4-(4-(3-(2-(2,6-dioxopiperidin-3-yl)-1,3-dioxoisoindolin-5-yl)azetidin-1-yl)piperidin-1-yl)-2-((tetrahydro-2H-pyran-4-yl)amino)benzamide], for which, in the experiment on KM12 cells, the IC50 is 8.1 nM. Also, the percent degradation of TPM3-TRKA protein at 0.01 µM on TPM3-TRKA fusion protein (setting [1]) is above 80%.

Consider `O=C1CCC(N2C(=O)c3ccc(N4CC5(C4)CN(C4CCN(c6ccc(C(=O)Nc7n[nH]c8ccc(Cc9cc(F)cc(F)c9)cc78)c(NC7CCOCC7)c6)CC4)C5)cc3C2=O)C(=O)N1` (stereo not shown) [TR-340, N-(5-(3,5-difluorobenzyl)-1H-indazol-3-yl)-4-(4-(6-(2-(2,6-dioxopiperidin-3-yl)-1,3-dioxoisoindolin-5-yl)-2,6-diazaspiro[3.3]heptan-2-yl)piperidin-1-yl)-2-((tetrahydro-2H-pyran-4-yl)amino)benzamide], for which, in the experiment with KM12 cells, the IC50 turned out to be 7.5 nM. Further, the percent degradation of TPM3-TRKA protein at 0.01 µM on TPM3-TRKA fusion protein (setting [1]) was above 80%.

Turning to `O=C1CC[C@H](N2C(=O)c3ccc(N4CC(CN5CCN(c6ccc(C(=O)Nc7n[nH]c8ccc(Cc9cc(F)cc(F)c9)cc78)c(NC7CCOCC7)c6)CC5)C4)cc3C2=O)C(=O)N1` [TR-341, (S)—N-(5-(3,5-difluorobenzyl)-1H-indazol-3-yl)-4-(4-((1-(2-(2,6-dioxopiperidin-3-yl)-1,3-dioxoisoindolin-5-yl)azetidin-3-yl)methyl)piperazin-1-yl)-2-((tetrahydro-2H-pyran-4-yl)amino)benzamide], the IC50 in the experiment with KM12 cells was 3 nM. Also, the percent degradation of TPM3-TRKA protein at 0.01 µM on TPM3-TRKA fusion protein (setting [1]) was above 80%.

For the molecule `O=C1CC[C@@H](N2C(=O)c3ccc(N4CC(CN5CCN(c6ccc(C(=O)Nc7n[nH]c8ccc(Cc9cc(F)cc(F)c9)cc78)c(NC7CCOCC7)c6)CC5)C4)cc3C2=O)C(=O)N1` [TR-342, (R)—N-(5-(3,5-difluorobenzyl)-1H-indazol-3-yl)-4-(4-((1-(2-(2,6-dioxopiperidin-3-yl)-1,3-dioxoisoindolin-5-yl)azetidin-3-yl)methyl)piperazin-1-yl)-2-((tetrahydro-2H-pyran-4-yl)amino)benzamide], in the experiment on KM12 cells, the IC50 was 3 nM. Besides, the percent degradation of TPM3-TRKA protein at 0.01 µM at TPM3-TRKA fusion protein (setting [1]) is above 80%. The “relative effectiveness at degrading TRKA” value on TPM3-TRKA fusion protein (KM12 cells) is on record as “more effective at degrading TRKA at lower concentrations than TR-342”.

Take `O=C1CC[C@H](N2C(=O)c3ccc(N4CC(N5CCN(c6ccc(C(=O)Nc7n[nH]c8ccc(Cc9cc(F)cc(F)c9)cc78)c(NC7CCOCC7)c6)CC5)C4)cc3C2=O)C(=O)N1` [TR-343, (S)—N-(5-(3,5-difluorobenzyl)-1H-indazol-3-yl)-4-(4-(1˜ (2-(2,6-dioxopiperidin-3-yl)-1,3-dioxoisoindolin-5-yl)azetidin-3-yl)piperazin-1-yl)-2-((tetrahydro-2H-pyran-4-yl)amino)benzamide]: in the experiment on KM12 cells, the IC50 was found to be 9 nM. For the same molecule, at TPM3-TRKA fusion protein (setting [1]), the percent degradation of TPM3-TRKA protein at 0.01 µM is above 80%. The “relative effectiveness at degrading TRKA” value on TPM3-TRKA fusion protein (KM12 cells) was “more effective at degrading TRKA at lower concentrations than TR-344”.

In the case of `O=C1CC[C@@H](N2C(=O)c3ccc(N4CC(N5CCN(c6ccc(C(=O)Nc7n[nH]c8ccc(Cc9cc(F)cc(F)c9)cc78)c(NC7CCOCC7)c6)CC5)C4)cc3C2=O)C(=O)N1` [TR-344, (R)—N—(S-(3,5-difluorobenzyl)-1H-indazol-3-yl)-4-(4-(1-(2-(2,6-dioxopiperidin-3-yl)-1,3-dioxoisoindolin-5-yl)azetidin-3-yl)piperazin-1-yl)-2-((tetrahydro-2H-pyran-4-yl)amino)benzamide], in the experiment with KM12 cells, the IC50 amounted to 9 nM. In addition, at TPM3-TRKA fusion protein (setting [1]), the percent degradation of TPM3-TRKA protein at 0.01 µM is above 80%.

The values are drawn from patent publication US12410171B2, “Tropomyosin receptor kinase (TRK) degradation compounds and methods of use” (Cullgen (Shanghai), Inc., priority 2020, dated 2025).
